Where two headings read alike, the source gives them in different places.
What was measured:
[1] = 10 MHz, 37° C
Description: The relations of protons present in water and plasma exposed to the chelate product of Example 7 was tested by NMR for relaxities, in msec, at 10 MHz, 37° C.

selected body organs [2] = conditions: for T1, Blood / T1, Brain / T1, Large Int. / T1, Liver / T1, Renal Cort. / T1, Renal Med. / T1, Small Int. / T1, Urine / T2, Brain / T2, Large Int. / T2, Liver / T2, Renal Cort. / T2, Renal Med. / T2, Small Int. / T1, Fat / T1, Heart / T1, Lung / T1, Skel. Musc. / T1, Stom. / T2, Fat / T2, Heart / T2, Lung / T2, Skel. Musc. / T2, Stom. / T2, Urine: 30 min, 10 MHz
Description: Each of four rabbits was injected intravenously with one of the following amounts of the solution obtained in Example 7: 0.01 mmoles/kg, 0.05 mmoles/kg, 0.10 mmoles/kg and 0.20 mmoles/kg. The rabbits were sacrificed 30 min post injection, and the proton relaxation values of selected body organs were measured with NMR, in vitro at 10 MHz.

selected body organs [3] = conditions: for T1, Bile / T1, Heart / T1, Liver / T1, Renal cortex / T1, Renal medulla: 0.01 mmol/kg i.v., 10 MHz
Description: Each of seven rabbits was injected intravenously with 0.01 mmol/kg of the solution obtained in Example 7. The rabbits were sacrificed at 0.25, 0.50, 1.0, 2.0, 4, 6 and 24 hours post-injection, and the proton relation values of selected body organs were measured with NMR, in vitro, at 10 MHz.

[4] = Source text: The compound DPDP was studied potentiometrically from pH 11.2 to 2.0. Data sets were collected on a custom-built automatic potentiometric titration apparatus composed of a METROHM 655 DOSIMAT automatic buret, a FISHER ACCUMET pH meter with a CORNING calomel combination electrode, a custom-blown water jacketed titration cell, a BRINKMAN LAUDA K-2/R constant temperature bath and a COMMODORE 64 computer. The BASIC computer program TITRATOR (Harris, W. et al, J.Am.Chem.Soc. 101:6534 (1979)) runs the apparatus. Data analysis was performed on an IBM-AT computer using the least squares program, BETA (Harris, W. et al, supra), and the data analysis program, HANDNBAR (Harris, W. et al, supra). The titrants were standardized by phenophthalein titration as follows: KOH was calibrated against potassium hydrogen phthalate (a primary standard), and HCl solutions were calibrated against the KOH standard. The Mn(II)Cl2 solution was standardized with an EDTA titration using Erichrome Black T as the indicator. All solutions were made from distilled, deionized water that was further purified on a MILLI-Q cartridge system, degassed, and then kept under an atmosphere of argon which had been scrubbed for CO2 and O2. Additions of EDTA and Mn(II) solutions were performed using calibrated GILMOT pipets. The electrode was calibrated in concentration units with degassed solutions of p[H+]=2.291 and 1.078 at 0.1 M ionic strength.
The metal complex titration was performed by adding 152.2 mg (0.2383 mmoles) to 74.6 ml of a high pH aqueous solution. 2.07 ml of a 0.1152 M Mn(II) solution (0.2386 mmoles) were added. The complex was then titrated to low pH with 1.002 N HCl.

## Cc1ncc(COP(=O)(O)O)c(CN(CCN(CC(=O)[O-])Cc2c(COP(=O)(O)O)cnc(C)c2O)CC(=O)[O-])c1O.[Mn+2] [Mn(DPDP), manganese chelate complex of N,N'-bis-(pyridoxal-5-phosphate)ethylenediamine-N,N'-diacetic acid]
[1]; 0.000039 Molar
  T1 (Plasma): 1103 ms
[1]; 0.000078 Molar
  T1 (Plasma): 995 ms
[1]; 0.000156 Molar
  T1 (Plasma): 856 ms
  T1 (Water): 1470 ms
[1]; 0.000312 Molar
  T1 (Plasma): 624 ms
  T1 (Water): 1083 ms
[1]; 0.000625 Molar
  T1 (Plasma): 398 ms
  T1 (Water): 639 ms
[1]; 0.00125 Molar
  T1 (Plasma): 240 ms
  T1 (Water): 332 ms
[1]; 0.0025 Molar
  T1 (Plasma): 139 ms
  T1 (Water): 175 ms
  T2 (Plasma): 124 ms
[1]; 0.005 Molar
  T1 (Plasma): 74 ms
  T1 (Water): 100 ms
  T2 (Plasma): 68 ms
  T2 (Water): 86 ms
[1]; 0.010 Molar
  T1 (Plasma): 40 ms
  T1 (Water): 43 ms
  T2 (Plasma): 34 ms
  T2 (Water): 41 ms
Selected body organs [2]; 0.01 mmol/kg i.v.
  T1, Blood: 844 ms
  T1, Brain: 554 ms
  T1, Large Int.: 283 ms
  T1, Liver: 176 ms
  T1, Renal Cort.: 298 ms
  T1, Renal Med.: 502 ms
  T1, Small Int.: 324 ms
  T1, Urine: 821 ms
  T2, Brain: 76 ms
  T2, Large Int.: 64 ms
  T2, Liver: 39 ms
  T2, Renal Cort.: 65 ms
  T2, Renal Med.: 99 ms
  T2, Small Int.: 72 ms
Selected body organs [2]; 0.05 mmol/kg i.v.
  T1, Blood: 613 ms
  T1, Brain: 496 ms
  T1, Fat: 200 ms
  T1, Heart: 353 ms
  T1, Large Int.: 365 ms
  T1, Liver: 76 ms
  T1, Lung: 575 ms
  T1, Renal Cort.: 210 ms
  T1, Renal Med.: 223 ms
  T1, Skel. Musc.: 494 ms
  T1, Small Int.: 237 ms
  T1, Stom.: 245 ms
  T1, Urine: 150 ms
  T2, Brain: 82 ms
  T2, Fat: 139 ms
  T2, Heart: 54 ms
  T2, Large Int.: 83 ms
  T2, Liver: 31 ms
  T2, Lung: 113 ms
  T2, Renal Cort.: 57 ms
  T2, Renal Med.: 57 ms
  T2, Skel. Musc.: 47 ms
  T2, Small Int.: 52 ms
  T2, Stom.: 41 ms
  T2, Urine: 136 ms
Selected body organs [2]; 0.10 mmol/kg i.v.
  T1, Blood: 506 ms
  T1, Brain: 590 ms
  T1, Fat: 183 ms
  T1, Heart: 300 ms
  T1, Large Int.: 290 ms
  T1, Liver: 65 ms
  T1, Lung: 435 ms
  T1, Renal Cort.: 188 ms
  T1, Renal Med.: 209 ms
  T1, Skel. Musc.: 425 ms
  T1, Small Int.: 218 ms
  T1, Stom.: 242 ms
  T1, Urine: 90 ms
  T2, Brain: 90 ms
  T2, Fat: 115 ms
  T2, Heart: 51 ms
  T2, Large Int.: 57 ms
  T2, Liver: 23 ms
  T2, Lung: 61 ms
  T2, Renal Cort.: 55 ms
  T2, Renal Med.: 48 ms
  T2, Skel. Musc.: 31 ms
  T2, Small Int.: 46 ms
  T2, Stom.: 52 ms
  T2, Urine: 75 ms
Selected body organs [2]; 0.20 mmol/kg i.v.
  T1, Blood: 411 ms
  T1, Brain: 352 ms
  T1, Fat: 192 ms
  T1, Heart: 205 ms
  T1, Large Int.: 256 ms
  T1, Liver: 68 ms
  T1, Lung: 376 ms
  T1, Renal Cort.: 143 ms
  T1, Renal Med.: 127 ms
  T1, Skel. Musc.: 232 ms
  T1, Small Int.: 131 ms
  T1, Stom.: 271 ms
  T2, Brain: 66 ms
  T2, Heart: 47 ms
  T2, Large Int.: 74 ms
  T2, Liver: 25 ms
  T2, Lung: 63 ms
  T2, Renal Cort.: 53 ms
  T2, Renal Med.: 60 ms
  T2, Skel. Musc.: 31 ms
  T2, Small Int.: 46 ms
  T2, Stom.: 53 ms
Selected body organs [2]; dose range studied
  heart uptake vs dose: the heart continues to uptake Mn(DPDP) through the dose range studied
Selected body organs [2]; heart, liver and kidneys, i.v.
  uptake in organs: rapid uptake of the Mn(DPDP) in the heart, liver and kidneys
Selected body organs [2]; higher doses
  brain uptake: uptake by the brain was observed at higher doses
Selected body organs [2]; i.v., 30 min post injection
  saturating dose, liver and kidneys: 0.10 mmol/kg
Selected body organs [3]; 0.25 hr
  T1, Bile: 160 ms
  T1, Heart: 231 ms
  T1, Liver: 68 ms
  T1, Renal cortex: 202 ms
  T1, Renal medulla: 192 ms
Selected body organs [3]; 0.50 hr
  T1, Bile: 46 ms
  T1, Heart: 352 ms
  T1, Liver: 76 ms
  T1, Renal cortex: 191 ms
  T1, Renal medulla: 231 ms
Selected body organs [3]; 1.0 hr
  T1, Bile: 25 ms
  T1, Heart: 381 ms
  T1, Liver: 48 ms
  T1, Renal cortex: 229 ms
  T1, Renal medulla: 236 ms
Selected body organs [3]; 2 hr
  T1, Bile: 21 ms
  T1, Heart: 507 ms
  T1, Liver: 48 ms
  T1, Renal cortex: 192 ms
  T1, Renal medulla: 310 ms
Selected body organs [3]; 4 hr
  T1, Bile: < 1 ms
  T1, Heart: 522 ms
  T1, Liver: 145 ms
  T1, Renal cortex: 210 ms
  T1, Renal medulla: 340 ms
Selected body organs [3]; 6 hr
  T1, Bile: 14 ms
  T1, Heart: 663 ms
  T1, Liver: 209 ms
  T1, Renal cortex: 239 ms
  T1, Renal medulla: 375 ms
Selected body organs [3]; 24 hr
  T1, Bile: 107 ms
  T1, Heart: 660 ms
  T1, Liver: 315 ms
  T1, Renal cortex: 328 ms
  T1, Renal medulla: 563 ms
Selected body organs [3]; liver, renal cortex, renal medulla and heart
  uptake and clearance: rapid uptake and clearance of Mn(DPDP) in the liver, renal cortex, renal medulla and heart
Selected body organs [3]; post-injection, i.v.
  clearance time through renal and hepatobiliary systems: 6 to 8 h
[4]; Mn(II) chelate, titrated from pH 11.1 to 2.0
  log Kf (formation constant): 14.8
[4]; physiological pH
  binding of Mn(II) ion: quantitatively bound to the chelating agent
[4]; titration data
  pH below which chelate begins to demetallate: below 4.5
blood-brain barrier; defect in blood-brain barrier
  collection in extravascular space: large amounts of the complex of Mn(DPDP) collect in the extravascular space
blood-brain barrier; not observable without Mn(DPDP) as contrast agent
  observation of blood-brain barrier defects by NMRI: such defects were observed by NMRI tomography
